These results are taken from patent US20230293578A1, “TREATMENT OF BACTERIAL VAGINOSIS” (priority 2020, published 2023).

The subject of the assay is G. vag strain 14.2. Put plainly: antibiotic synergy testing, checkerboard cross dilution method in broth cultures. The class given is cell-based, Gardnerella vaginalis. The note with it: Gardnerella vaginalis, 14.2; 32 mg/mL clindamycin, 24 hr; read-out: growth inhibited.

Regarding `CCC[C@@H]1C[C@@H](C(=O)N[C@@H]([C@H]2O[C@H](SC)[C@H](O)[C@@H](O)[C@H]2O)[C@H](C)Cl)N(C)C1` [clindamycin, reference compound], the inhibition at 32000 µg/mL was determined as 27.4%.
